Literature values in US20200368234A1, “PHOTORECEPTOR GENE MODULATOR PHOTOREGULIN 3 FOR TREATMENT OF RETINAL DISEASE” (University of Washington, priority 2017, published 2020).

Tests used:
Rho^P23H = Rho^P23H model of RP; previously reported; cited from earlier work
Pde6b^Rd1 = Pde6b^Rd1 model of RP; previously reported; cited from earlier work
rod gene expression = conditions: developing or mature retina treated with PR1; previously reported; cited from earlier work

Question: Which “rod degeneration in vitro” value (Rho^P23H) does the source give for `Cc1cc(C)cc(NC(=O)CCc2nc3sc4c(c3c(=O)[nH]2)CCCC4)c1` [PR1] here?
Answer: Its value is “slows rod degeneration in vitro”.

Question: What about the “rod degeneration in vitro” value (Pde6b^Rd1) of the same compound?
Answer: Its value is “slows rod degeneration in vitro”.

Question: And the “rod and cone gene expression” value (rod gene expression)?
Answer: Its value is “reduces rod gene expression and increases the expression of some cone genes”.
